Reference: BigSolDB 2.1

CC(=O)N[C@@H](Cc1ccc(O)cc1)C(=O)O
solubility (mole fraction)
Conditions	283.15 K	288.15 K	293.15 K	298.15 K	303.15 K	308.15 K	313.15 K	318.15 K	323.15 K
in acetone	0.106	0.116	0.132	0.136	0.145	0.152	0.166	0.181	0.197
in acetonitrile	0.00301	0.00353	0.00436	0.00526	0.0064	0.00795	0.00988	0.0129	0.017
in dimethyl carbonate	0.00114	0.00122	0.00127	0.0015	0.00224	0.00267	0.00307	0.00373	0.00404
in ethyl acetate	0.00383	0.00412	0.00477	0.00507	0.00577	0.00655	0.0073	0.00849	0.0102
in isobutanol	0.0349	0.0378	0.0468	0.0522	0.06	0.0683	0.0777	0.0853	0.0973
in isopentanol	0.0363	0.0394	0.0487	0.05	0.0568	0.0634	0.0635	0.0749	0.0807
in isopropanol	0.0772	0.0942	0.105	0.111	0.122	0.134	0.148	0.159	0.171
in methyl acetate	0.00475	0.00537	0.00621	0.00723	0.0085	0.00995	0.0115	0.0139	0.0162
in n-butanol	0.0529	0.058	0.0653	0.0715	0.0789	0.0892	0.0911	0.0979	0.108
in n-butyl acetate	0.00136	0.00179	0.00214	0.00252	0.003	0.00351	0.00388	0.00413	0.00435
in n-propyl acetate	0.00163	0.00185	0.00232	0.00261	0.00289	0.00366	0.0041	0.00509	0.00537
in sec-butanol	0.08	0.0885	0.0967	0.103	0.113	0.125	0.137	0.146	0.159
in water	0.00875	0.00935	0.0115	0.0154	0.021	0.0292	0.0459	0.0726	0.106
